Measurements from US20250144067A1, “PERSONALIZED STARVATION THERAPY FOR CANCER” (Faeth Therapeutics, Inc., priority 2021, published 2025).
Where a name gives a salt, the structure may show the parent alone. Read-outs that look alike come from different tables or passages of the source.

Columns and labels:
[1] = system: NCI-H292 lung cancer cells; assay: FDA drug screening, complete media vs cholesterol-free media without statin (TABLE 1); assay type: cell-based, human
[2] = system: NCI-H292 lung cancer cells; assay: FDA drug screening, complete media vs cholesterol-free media with simvastatin (TABLE 2); assay type: cell-based, human
[3] = NCI-H292 cells, cholesterol-free media without statin
[4] = complete vs cholesterol-free media, greater than 0 enhanced anti-cancer activity, about 0 neutral, below 0 antagonists
[5] = NCI-H292 cells, drug in cholesterol-free media with simvastatin 0.04 μM
[6] = NCI-H292 cells, drug in complete media
[7] = complete media vs cholesterol-free media + simvastatin (0.04 μM), >0 enhanced anti-cancer activity, about 0 neutral, <0 antagonist
[8] = Complete minus Cholesterol-free, >0 enhanced anti-cancer activity, about 0 neutral, <0 antagonist
[9] = NCI-H292 cells, cholesterol-free media with simvastatin 0.04 μM, cell growth value in FDA drug screen
[10] = NCI-H292 cells, complete media, cell growth value in FDA drug screen
[11] = complete media minus cholesterol-free media + simvastatin, >0 enhanced anti-cancer activity, about 0 neutral, <0 antagonist
[12] = NCI-H292 cells, cholesterol-free media without statin, FDA drug library screen
[13] = complete vs cholesterol-free media, >0 enhanced anti-cancer activity, about 0 neutral, <0 antagonist
[14] = NCI-H292 cells, FDA drug library screen, cholesterol-free media with simvastatin 0.04 μM
[15] = NCI-H292 cells, FDA drug library screen, complete media
[16] = Complete minus Cholesterol-free, greater than 0 enhanced anti-cancer activity, about 0 neutral, below 0 antagonist
[17] = NCI-H292 cells, FDA drug library screen, cholesterol-free media without statin
[18] = NCI-H292 cells, cholesterol-free media with simvastatin 0.04 μM, FDA drug library screen (TABLE 2)
[19] = NCI-H292 cells, complete media, FDA drug library screen (TABLE 2)
[20] = complete media minus cholesterol-free media + simvastatin (0.04 μM), >0 enhanced anti-cancer activity, about 0 neutral, <0 antagonist
[21] = NCI-H292 cells, complete media, FDA drug library screen
[22] = NCI-H292 cells, FDA library drug in cholesterol-free media with simvastatin 0.04 μM
[23] = NCI-H292 cells, FDA library drug in complete media

For `COC(=O)[C@H]1[C@H]2C[C@@H]3c4[nH]c5cc(OC)ccc5c4CCN3C[C@H]2C[C@@H](OC(=O)c2cc(OC)c(OC)c(OC)c2)[C@@H]1OC` [Reserpine (hydrochloride)], the Cholesterol-free [1, 3] was 1.178, the Complete ([1]; NCI-H292 cells, complete media) was 0.8568 and the Difference [1, 4] was −0.32. For the same compound, the “Cholesterol-free media + simvastatin (0.04 μM)” value [2, 5] was 1.074, the “Complete Media” value [2, 6] was 0.834 and the Difference [2, 7] was −0.24.

For `COC(=O)[C@H]1[C@H]2C[C@@H]3c4[nH]c5cc(OC)ccc5c4CCN3C[C@H]2C[C@@H](OC(=O)c2cc(OC)c(OC)c(OC)c2)[C@@H]1OC` [Reserpine], the Difference [1, 8] was −0.28, the Cholesterol-free [1, 3] was 1.042 and the Complete ([1]; NCI-H292 cells, complete media) was 0.7591. For the same compound, the “Cholesterol-free media + simvastatin (0.04 μM)” value [2, 9] was 0.8906, the “Complete Media” value [2, 10] was 0.9102 and the Difference [2, 11] was 0.02.

`Oc1ccc(C=Cc2cc(O)cc(O)c2)cc1` [Resveratrol] was tested, and the Cholesterol-free [1, 12] was 1.037, the Difference [1, 13] was 0.13 and the “Cholesterol-free media + simvastatin (0.04 μM)” value [2, 14] was 0.7896. For the same compound, the “Complete Media” value [2, 15] was 0.6933 and the Difference [2, 7] was −0.10.

In the case of `C=C[C@]1(C)C[C@@H](OC(=O)CS[C@@H]2C[C@H]3CC[C@@H](C2)N3C)[C@]2(C)[C@H](C)CC[C@]3(CCC(=O)[C@H]32)[C@@H](C)[C@@H]1O` [Retapamulin], the Difference [1, 16] is reported as −0.18, the Cholesterol-free [1, 17] is reported as 1.002 and the Complete [1, 15] is reported as 0.8221. The “Cholesterol-free media + simvastatin (0.04 μM)” value [2, 18] was 1.667, the “Complete Media” value [2, 19] was 1.638 and the Difference [2, 20] was −0.03.

With `CC1=C(/C=C/C(C)=C/C=C/C(C)=C/C(=O)O)C(C)(C)CCC1` [Retinoic acid] the Difference ([1]; Complete minus Cholesterol-free, greater than 0 enhanced anti-cancer activity, about 0 neutral, below 0 antagonists) was −0.66, the Cholesterol-free ([1]; NCI-H292 cells in cholesterol-free media without statin) was 1.248 and the Complete ([1]; NCI-H292 cells in complete media) was 0.5841. The “Cholesterol-free media + simvastatin (0.04 μM)” value [2, 14] was 0.9194, the “Complete Media” value [2, 15] was 1.253 and the Difference [2, 11] was 0.33.

Work on `Cc1nc(Nc2ccc(F)cc2)nc(N2CCc3ccccc3C2C)c1C` (stereo not shown) [Revaprazan (hydrochloride)] yielded a Cholesterol-free [1, 12] of 1.192, a Complete [1, 21] of 1.344 and a Difference [1, 13] of 0.15. For the same compound, the “Cholesterol-free media + simvastatin (0.04 μM)” value [2, 18] was 1.005, the “Complete Media” value [2, 19] was 0.9357 and the Difference [2, 20] was −0.07.

In the case of `CN(CCN1CCC(OC(=O)Nc2ccccc2-c2ccccc2)CC1)C(=O)c1ccc(CN2CCC(C(N)=O)CC2)cc1` [Revefenacin], the Complete [1] is reported as 0.9642, the Difference [1] is reported as −0.65 and the “Cholesterol-free media + simvastatin (0.04 μM)” value [2] is reported as 1.184. For the same compound, the “Complete Media” value [2] was 1.038 and the Difference [2] was −0.15.

`NC(=O)c1ncn([C@@H]2O[C@H](CO)[C@@H](O)[C@H]2O)n1` [Ribavirin] gave a Difference [1, 16] of −0.11, a Cholesterol-free [1, 17] of 0.8402 and a Complete [1, 15] of 0.7281. The “Cholesterol-free media + simvastatin (0.04 μM)” value [2, 5] was 0.9314, the “Complete Media” value [2, 6] was 0.6899 and the Difference [2, 7] was −0.24.

Compound `CN(C)C(=O)c1cc2cnc(Nc3ccc(N4CCNCC4)cn3)nc2n1C1CCCC1` [Ribociclib hydrochloride] has a Cholesterol-free [1, 12] of 1.177, a Complete [1, 21] of 1.5 and a Difference [1, 13] of 0.32. The “Cholesterol-free media + simvastatin (0.04 μM)” value [2, 14] was 0.9857, the “Complete Media” value [2, 15] was 0.8306 and the Difference [2, 7] was −0.16.

Work on `CN(C)C(=O)c1cc2cnc(Nc3ccc(N4CCNCC4)cn3)nc2n1C1CCCC1` [Ribociclib] yielded a Difference [1, 8] of −0.30, a Cholesterol-free [1, 3] of 1.15 and a Complete ([1]; NCI-H292 cells, complete media) of 0.8537. For the same compound, the “Cholesterol-free media + simvastatin (0.04 μM)” value [2, 9] was 0.6195, the “Complete Media” value [2, 10] was 0.7338 and the Difference [2, 11] was 0.11.

With `CCCC(=O)OC[C@@H](OC(=O)CCC)[C@@H](OC(=O)CCC)[C@H](Cn1c2nc(=O)[nH]c(=O)c-2nc2cc(C)c(C)cc21)OC(=O)CCC` [Riboflavin Tetrabutyrate] the Difference ([1]; Complete minus Cholesterol-free, […]) was 0.07, the Cholesterol-free [1, 12] was 0.7766 and the Complete [1, 21] was 0.8432. The “Cholesterol-free media + simvastatin (0.04 μM)” value [2, 14] was 1.163, the “Complete Media” value [2, 15] was 1.747 and the Difference ([2]; complete media minus cholesterol-free media + simvastatin, […]) was 0.58.

`NC[C@H]1O[C@H](O[C@H]2[C@H](O[C@@H]3O[C@H](CO)[C@@H](O)[C@H]3O)[C@@H](O)[C@H](N)C[C@@H]2N)[C@H](N)[C@@H](O)[C@@H]1O.O=S(=O)(O)O` [Ribostamycin (sulfate)] gave a Difference [1, 8] of −0.22, a Cholesterol-free [1, 3] of 1.714 and a Complete ([1]; NCI-H292 cells, complete media) of 1.495. For the same compound, the “Cholesterol-free media + simvastatin (0.04 μM)” value [2, 22] was 1.833, the “Complete Media” value [2, 23] was 1.478 and the Difference [2, 7] was −0.36.

`CO[C@H]1/C=C/O[C@@]2(C)Oc3c(C)c(O)c4c(c3C2=O)C2=NC3(CCN(CC(C)C)CC3)NC2=C(NC(=O)/C(C)=C\C=C\[C@H](C)[C@H](O)[C@@H](C)[C@@H](O)[C@@H](C)[C@H](OC(C)=O)[C@@H]1C)C4=O` [Rifabutin] was tested, and the Cholesterol-free [1, 12] was 0.7322, the Complete [1, 21] was 0.8211 and the Difference [1, 13] was 0.09. The “Cholesterol-free media + simvastatin (0.04 μM)” value [2, 5] was 1.205, the “Complete Media” value [2, 6] was 0.9499 and the Difference [2, 7] was −0.26.

Compound `CO[C@H]1/C=C/O[C@@]2(C)Oc3c(C)c(O)c4c(O)c(c(/C=N/N5CCN(C)CC5)c(O)c4c3C2=O)NC(=O)/C(C)=C\C=C\[C@H](C)[C@H](O)[C@@H](C)[C@@H](O)[C@@H](C)[C@H](OC(C)=O)[C@@H]1C` [Rifampicin] has a Cholesterol-free [1, 12] of 0.7396, a Complete [1, 21] of 1.143 and a Difference [1, 13] of 0.40. The “Cholesterol-free media + simvastatin (0.04 μM)” value [2, 22] was 1.219, the “Complete Media” value [2, 23] was 0.8641 and the Difference [2, 7] was −0.36.

Compound `CO[C@H]1/C=C/O[C@@]2(C)Oc3c(C)c([O-])c4c(O)c(cc(O)c4c3C2=O)NC(=O)/C(C)=C\C=C\[C@H](C)[C@H](O)[C@@H](C)[C@@H](O)[C@@H](C)[C@H](OC(C)=O)[C@@H]1C.[Na+]` [Rifamycin (sodium)] has a Cholesterol-free [1, 3] of 2.314, a Complete ([1]; NCI-H292 cells, complete media) of 1.878 and a Difference [1, 4] of −0.44. For the same compound, the “Cholesterol-free media + simvastatin (0.04 μM)” value [2, 22] was 1.045, the “Complete Media” value [2, 23] was 0.7505 and the Difference [2, 7] was −0.29.

`CO[C@H]1/C=C/O[C@@]2(C)Oc3c(C)c(O)c4c(O)c(c(/C=N/N5CCN(C6CCCC6)CC5)c(O)c4c3C2=O)NC(=O)/C(C)=C\C=C\[C@H](C)[C@H](O)[C@@H](C)[C@@H](O)[C@@H](C)[C@H](OC(C)=O)[C@@H]1C` [Rifapentine] was tested, and the Difference [1, 8] was −0.06, the Cholesterol-free [1, 12] was 1.056 and the Complete [1, 21] was 0.9967. For the same compound, the “Cholesterol-free media + simvastatin (0.04 μM)” value [2, 14] was 1.582, the “Complete Media” value [2, 15] was 1.938 and the Difference [2, 11] was 0.36.

With `CO[C@H]1/C=C/O[C@@]2(C)Oc3c(C)c(O)c4c(O)c(c5c(nc6cc(C)ccn65)c4c3C2=O)NC(=O)/C(C)=C\C=C\[C@H](C)[C@H](O)[C@@H](C)[C@@H](O)[C@@H](C)[C@H](OC(C)=O)[C@@H]1C` [Rifaximin] the Cholesterol-free [1, 12] was 0.8156, the Complete [1, 21] was 1.163 and the Difference [1, 13] was 0.35. For the same compound, the “Cholesterol-free media + simvastatin (0.04 μM)” value [2, 14] was 0.8832, the “Complete Media” value [2, 15] was 0.7304 and the Difference [2, 7] was −0.15.

For `Cc1cc(/C=C/C#N)cc(C)c1Nc1ccnc(Nc2ccc(C#N)cc2)n1` [Rilpivirine], the Difference [1, 8] was 0.06, the Cholesterol-free [1, 12] was 0.8235 and the Complete [1, 21] was 0.8865. The “Cholesterol-free media + simvastatin (0.04 μM)” value [2, 22] was 1.859, the “Complete Media” value [2, 23] was 1.359 and the Difference [2, 7] was −0.50.

`Nc1nc2ccc(OC(F)(F)F)cc2s1` [Riluzole hydrochloride] gave a Difference [1, 8] of −0.27, a Cholesterol-free [1, 3] of 1.152 and a Complete ([1]; NCI-H292 cells, complete media) of 0.8769. The “Cholesterol-free media + simvastatin (0.04 μM)” value [2, 9] was 0.9663, the “Complete Media” value [2, 10] was 0.9877 and the Difference [2, 11] was 0.02.

With `Nc1nc2ccc(OC(F)(F)F)cc2s1` [Riluzole] the Difference [1, 8] was 0.02, the Cholesterol-free [1, 12] was 1.015 and the Complete [1, 21] was 1.033. The “Cholesterol-free media + simvastatin (0.04 μM)” value [2, 14] was 0.9966, the “Complete Media” value [2, 15] was 1.259 and the Difference [2, 11] was 0.26.
